# Results as given in patent US20200199102A1, “COMPOUNDS THAT PARTICIPATE IN COOPERATIVE BINDING AND USES THEREOF” (Revolution Medicines, Inc., priority 2017, published 2020).
# Where a SMILES comes first, the peptide text is derived from it. [ ]: non-standard residue; d: D form. MeBmt = C/C=C/C[C@@H](C)[C@@H](O)[C@H](NC)C(=O)O; NMeY = CN[C@@H](Cc1ccc(O)cc1)C(=O)O; NMeF = CN[C@@H](Cc1ccccc1)C(=O)O; NMeI = CC[C@H](C)[C@H](NC)C(=O)O; NMeT = CN[C@H](C(=O)O)[C@@H](C)O; NMeL = CN[C@@H](CC(C)C)C(=O)O; dNMeV = CN[C@@H](C(=O)O)C(C)C; NMeNle = CCCC[C@H](NC)C(=O)O; NMeNva = CCC[C@H](NC)C(=O)O; NMeV = CN[C@H](C(=O)O)C(C)C; NMeA = CN[C@@H](C)C(=O)O; dNMeA = CN[C@H](C)C(=O)O; Abu = CC[C@H](N)C(=O)O; Sar = CNCC(=O)O
# Target: T1, Cyclophilin A (Homo sapiens, UniProt P62937)
# T1 construct: made in house
# Experiment: AlphaLISA inhibition of binding of biotinylated Cyclosporin A to FLAG tagged Cyclophilin A
# Conditions: for % signal: AlphaLISA signal; for % signal / % inhibition of CsA binding to Cyclophilin A: test concentration not given; for IC50: read-out: IC50 value of CsA binding to Cyclophilin A
# Outline: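 Inhibition of biotin-CsA binding to FLAG-tagged Cyclophilin A read by AlphaLISA (ex 680, em 615 nm). Working stocks were 6 nM biotinylated CsA and 25 nM FLAG-CypA; beads and compound were combined first for 30 min, then protein added for 60 min, all at room temperature in the dark, with DMSO and cyclosporin A controls.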
# T1 sequence (P62937 whole entry, species assumed): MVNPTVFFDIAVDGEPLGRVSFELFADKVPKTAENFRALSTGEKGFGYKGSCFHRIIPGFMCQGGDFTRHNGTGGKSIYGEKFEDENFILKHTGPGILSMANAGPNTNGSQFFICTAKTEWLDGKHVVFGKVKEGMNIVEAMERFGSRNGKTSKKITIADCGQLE
Compound,% signal [%],IC50 [nM],% inhibition of CsA binding to Cyclophilin A [%]
C/C=C/C[C@@H](C)[C@@H](O)[C@H]1C(=O)N[C@@H](CC)C(=O)N(C)CC(=O)N(C)[C@@H](C)C(=O)N[C@@H](C(C)C)C(=O)N(C)[C@@H](C)C(=O)N[C@@H](CC(C)C)C(=O)N[C@H](C)C(=O)N(C)[C@@H](CC(C)C)C(=O)N(C)[C@@H](CC(C)C)C(=O)N(C)[C@@H](C(C)C)C(=O)N1C [Compound C82] (cyclo([MeBmt][Abu][Sar][NMeA]V[NMeA]L[dA][NMeL][NMeL][NMeV])),0.77,< 2000,99.23
C/C=C/C[C@@H](C)[C@@H](O)[C@H]1C(=O)N[C@@H](CC)C(=O)N(C)CC(=O)N(C)[C@H](C)C(=O)N[C@@H](C(C)C)C(=O)N(C)[C@@H](C)C(=O)N[C@@H](CC(C)C)C(=O)N[C@H](C)C(=O)N(C)[C@@H](CC(C)C)C(=O)N(C)[C@@H](CC(C)C)C(=O)N(C)[C@@H](C(C)C)C(=O)N1C [Compound C83] (cyclo([MeBmt][Abu][Sar][dNMeA]V[NMeA]L[dA][NMeL][NMeL][NMeV])),0.65,< 2000,
C/C=C/C[C@@H](C)[C@@H](O)[C@H]1C(=O)N[C@@H](CC)C(=O)N(C)CC(=O)N(C)[C@@H](Cc2ccccc2)C(=O)N[C@@H](C(C)C)C(=O)N(C)[C@@H](C)C(=O)N[C@@H](CC(C)C)C(=O)N[C@H](C)C(=O)N(C)[C@@H](CC(C)C)C(=O)N(C)[C@@H](CC(C)C)C(=O)N(C)[C@@H](C(C)C)C(=O)N1C [Compound C84] (cyclo([MeBmt][Abu][Sar][NMeF]V[NMeA]L[dA][NMeL][NMeL][NMeV])),6.81,< 2000,93.19
C/C=C/C[C@@H](C)[C@@H](O)[C@H]1C(=O)N[C@@H](CC)C(=O)N(C)CC(=O)N(C)CC(=O)N[C@@H](C(C)C)C(=O)N(C)[C@@H](C)C(=O)N[C@@H](CC(C)C)C(=O)N[C@H](C)C(=O)N(C)[C@@H](CC(C)C)C(=O)N(C)[C@@H](CC(C)C)C(=O)N(C)[C@@H](C(C)C)C(=O)N1C [Compound C85] (cyclo([MeBmt][Abu][Sar][Sar]V[NMeA]L[dA][NMeL][NMeL][NMeV])),0.87,< 2000,99.13
C/C=C/C[C@@H](C)[C@@H](O)[C@H]1C(=O)N[C@@H](CC)C(=O)N(C)CC(=O)N(C)[C@@H](CC(C)C)C(=O)N[C@@H](C(C)C)C(=O)N(C)[C@@H](C)C(=O)N[C@@H](CC(C)C)C(=O)N[C@H](C)C(=O)N(C)[C@@H](CC(C)C)C(=O)N(C)[C@@H](CC(C)C)C(=O)N(C)[C@@H](C(C)C)C(=O)N1C [Compound C86] (cyclo([MeBmt][Abu][Sar][NMeL]V[NMeA]L[dA][NMeL][NMeL][NMeV])),17.23,< 2000,82.77
C/C=C/C[C@@H](C)[C@@H](O)[C@H]1C(=O)N[C@@H](CC)C(=O)N(C)CC(=O)N(C)[C@@H]([C@@H](C)O)C(=O)N[C@@H](C(C)C)C(=O)N(C)[C@@H](C)C(=O)N[C@@H](CC(C)C)C(=O)N[C@H](C)C(=O)N(C)[C@@H](CC(C)C)C(=O)N(C)[C@@H](CC(C)C)C(=O)N(C)[C@@H](C(C)C)C(=O)N1C [Compound C87] (cyclo([MeBmt][Abu][Sar][NMeT]V[NMeA]L[dA][NMeL][NMeL][NMeV])),4.53,< 2000,95.47
C/C=C/C[C@@H](C)[C@@H](O)[C@H]1C(=O)N[C@@H](CC)C(=O)N(C)CC(=O)N(C)[C@@H](Cc2ccc(O)cc2)C(=O)N[C@@H](C(C)C)C(=O)N(C)[C@@H](C)C(=O)N[C@@H](CC(C)C)C(=O)N[C@H](C)C(=O)N(C)[C@@H](CC(C)C)C(=O)N(C)[C@@H](CC(C)C)C(=O)N(C)[C@@H](C(C)C)C(=O)N1C [Compound C88] (cyclo([MeBmt][Abu][Sar][NMeY]V[NMeA]L[dA][NMeL][NMeL][NMeV])),5.94,< 2000,94.06
C/C=C/C[C@@H](C)[C@@H](O)[C@H]1C(=O)N[C@@H](CC)C(=O)N(C)CC(=O)N(C)[C@@H](C(C)C)C(=O)N[C@@H](C(C)C)C(=O)N(C)[C@@H](C)C(=O)N[C@@H](CC(C)C)C(=O)N[C@H](C)C(=O)N(C)[C@@H](CC(C)C)C(=O)N(C)[C@@H](CC(C)C)C(=O)N(C)[C@@H](C(C)C)C(=O)N1C [Compound C89] (cyclo([MeBmt][Abu][Sar][NMeV]V[NMeA]L[dA][NMeL][NMeL][NMeV])),3.10,< 2000,96.90
C/C=C/C[C@@H](C)[C@@H](O)[C@H]1C(=O)N[C@@H](CC)C(=O)N(C)CC(=O)N(C)[C@@H](CCC)C(=O)N[C@@H](C(C)C)C(=O)N(C)[C@@H](C)C(=O)N[C@@H](CC(C)C)C(=O)N[C@H](C)C(=O)N(C)[C@@H](CC(C)C)C(=O)N(C)[C@@H](CC(C)C)C(=O)N(C)[C@@H](C(C)C)C(=O)N1C [Compound C90] (cyclo([Abu][Sar][NMeNva]V[NMeA]L[dA][NMeL][NMeL][NMeV][MeBmt])),6.46,< 2000,93.54
C/C=C/C[C@@H](C)[C@@H](O)[C@H]1C(=O)N[C@@H](CC)C(=O)N(C)CC(=O)N(C)[C@H](C(C)C)C(=O)N[C@@H](C(C)C)C(=O)N(C)[C@@H](C)C(=O)N[C@@H](CC(C)C)C(=O)N[C@H](C)C(=O)N(C)[C@@H](CC(C)C)C(=O)N(C)[C@@H](CC(C)C)C(=O)N(C)[C@@H](C(C)C)C(=O)N1C [Compound C91] (cyclo([Abu][Sar][dNMeV]V[NMeA]L[dA][NMeL][NMeL][NMeV][MeBmt])),5.17,< 2000,94.83
C/C=C/C[C@@H](C)[C@@H](O)[C@H]1C(=O)N[C@@H](CC)C(=O)N(C)CC(=O)N(C)[C@@H](CCCC)C(=O)N[C@@H](C(C)C)C(=O)N(C)[C@@H](C)C(=O)N[C@@H](CC(C)C)C(=O)N[C@H](C)C(=O)N(C)[C@@H](CC(C)C)C(=O)N(C)[C@@H](CC(C)C)C(=O)N(C)[C@@H](C(C)C)C(=O)N1C [Compound C92] (cyclo([Abu][Sar][NMeNle]V[NMeA]L[dA][NMeL][NMeL][NMeV][MeBmt])),9.00,< 2000,91.00
C/C=C/C[C@@H](C)[C@@H](O)[C@H]1C(=O)N[C@@H](CC)C(=O)N(C)CC(=O)N(C)[C@@H]([C@@H](C)CC)C(=O)N[C@@H](C(C)C)C(=O)N(C)[C@@H](CC(C)C)C(=O)N[C@@H](CC)C(=O)N[C@H](C)C(=O)N(C)[C@@H](CC(C)C)C(=O)N(C)[C@@H](CC(C)C)C(=O)N(C)[C@@H](C(C)C)C(=O)N1C [Compound C93] (cyclo([Abu][Sar][NMeI]V[NMeL][Abu][dA][NMeL][NMeL][NMeV][MeBmt])),1.28,< 2000,98.72
C/C=C/C[C@@H](C)[C@@H](O)[C@H]1C(=O)N[C@@H](CC)C(=O)N(C)CC(=O)N(C)[C@@H](C)C(=O)N[C@@H](C(C)C)C(=O)N(C)[C@@H](CC(C)C)C(=O)N[C@@H](CC)C(=O)N[C@H](C)C(=O)N(C)[C@@H](CC(C)C)C(=O)N(C)[C@@H](CC(C)C)C(=O)N(C)[C@@H](C(C)C)C(=O)N1C [Compound C94] (cyclo([Abu][Sar][NMeA]V[NMeL][Abu][dA][NMeL][NMeL][NMeV][MeBmt])),3.71,< 2000,96.29
C/C=C/C[C@@H](C)[C@@H](O)[C@H]1C(=O)N[C@@H](CC)C(=O)N(C)CC(=O)N(C)[C@H](C)C(=O)N[C@@H](C(C)C)C(=O)N(C)[C@@H](CC(C)C)C(=O)N[C@@H](CC)C(=O)N[C@H](C)C(=O)N(C)[C@@H](CC(C)C)C(=O)N(C)[C@@H](CC(C)C)C(=O)N(C)[C@@H](C(C)C)C(=O)N1C [Compound C95] (cyclo([Abu][Sar][dNMeA]V[NMeL][Abu][dA][NMeL][NMeL][NMeV][MeBmt])),6.90,< 2000,93.10
C/C=C/C[C@@H](C)[C@@H](O)[C@H]1C(=O)N[C@@H](CC)C(=O)N(C)CC(=O)N(C)[C@@H](Cc2ccccc2)C(=O)N[C@@H](C(C)C)C(=O)N(C)[C@@H](CC(C)C)C(=O)N[C@@H](CC)C(=O)N[C@H](C)C(=O)N(C)[C@@H](CC(C)C)C(=O)N(C)[C@@H](CC(C)C)C(=O)N(C)[C@@H](C(C)C)C(=O)N1C [Compound C96] (cyclo([Abu][Sar][NMeF]V[NMeL][Abu][dA][NMeL][NMeL][NMeV][MeBmt])),5.00,< 2000,95.00
C/C=C/C[C@@H](C)[C@@H](O)[C@H]1C(=O)N[C@@H](CC)C(=O)N(C)CC(=O)N(C)CC(=O)N[C@@H](C(C)C)C(=O)N(C)[C@@H](CC(C)C)C(=O)N[C@@H](CC)C(=O)N[C@H](C)C(=O)N(C)[C@@H](CC(C)C)C(=O)N(C)[C@@H](CC(C)C)C(=O)N(C)[C@@H](C(C)C)C(=O)N1C [Compound C97] (cyclo([Abu][Sar][Sar]V[NMeL][Abu][dA][NMeL][NMeL][NMeV][MeBmt])),6.42,< 2000,93.58
